Here are results for eight substances from EP2649091B1, “IMMUNE RESTRICTED PEPTIDES WITH INCREASED EFFICACY” (Stichting Het Nederlands Kanker Instituut, priority 2010, dated 2012).

The target in the experiment is HLA-A0201 (Homo sapiens, UniProt P04439, D140Y/D185E/D98H/E176V/E277Q/G131W/G231S/I119V/I121R/I166T/I218V/L300P/L318F/N151K/N90K/P208A/P217A/Q86G/Q94H/R138H/R169H/T345S). The experiment is classed as binding.
Throughout, for % inhibition at T=4H and T=24H FP 24h: test concentration or dose not given here.
Throughout, for % inhibition at T=4H and T=24H FP 4h: test concentration or dose not given here.

As usually defined, the % inhibition is the change of the read-out against control, counted positive when it falls. For [PHG]AAGIGI[4-FPHE]T[NLE], the “% inhibition at T=4H and T=24H FP 4h” value is 63%; the “% inhibition at T=4H and T=24H FP 24h” value worked out at 66%; the “IC50 Ratio” value is 6.8.
Taken in the same sequence, the figures for E[2-AOC]AGIGI[4FPHE]T[OM-HS] were 78%, 66% and 1.9.
Regarding [CSCF3][2-AOC]YDFFVWL, the “% inhibition at T=4H and T=24H FP 4H” value is on record as 91%; the “% inhibition at T=4H and T=24H FP 24H” value is 79%.
Take [CSME][NVA]AGIGILT[PRG]: the “% inhibition at T=4H and T=24H FP 4h” value is reported as 63%; the “% inhibition at T=4H and T=24H FP 24h” value is recorded as 60%; the “IC50 Ratio” value came to 2.8.
For [am-phg]AAGIGI[4-FPHE]TV, the “% inhibition at T=4H and T=24H FP 4h” value was determined as 62%; the “% inhibition at T=4H and T=24H FP 24h” value is 59%; the “IC50 Ratio” value came out at 2.1.
With [3-PYRA]MYSDFHFI, the “% inhibition at T=4H and T=24H FP 4H” value worked out at 79%; the “% inhibition at T=4H and T=24H FP 24H” value amounted to 76%.
As for [CSME]AAGIGI[4-FPHE]TV, the “% inhibition at T=4H and T=24H FP 4h” value was 63%; the “% inhibition at T=4H and T=24H FP 24h” value is given as 58%.
Taken in the same sequence, the figures for [CSME][2-AOC]KDVEERV were 60% and 56%.
